What is called EC50 is the concentration at which the effect is half-maximal.

The values that follow come from patent US11261186B2, “Biaryl derivative as GPR120 agonist” (LG CHEM, LTD., priority 2014, dated 2022).

The target of the test is T1, hGPR120 (Homo sapiens, UniProt Q5NUL3).
T1 construct: expressed in transfected cells; host or cells: CHO-K1
T1 sequence (Q5NUL3 1-361): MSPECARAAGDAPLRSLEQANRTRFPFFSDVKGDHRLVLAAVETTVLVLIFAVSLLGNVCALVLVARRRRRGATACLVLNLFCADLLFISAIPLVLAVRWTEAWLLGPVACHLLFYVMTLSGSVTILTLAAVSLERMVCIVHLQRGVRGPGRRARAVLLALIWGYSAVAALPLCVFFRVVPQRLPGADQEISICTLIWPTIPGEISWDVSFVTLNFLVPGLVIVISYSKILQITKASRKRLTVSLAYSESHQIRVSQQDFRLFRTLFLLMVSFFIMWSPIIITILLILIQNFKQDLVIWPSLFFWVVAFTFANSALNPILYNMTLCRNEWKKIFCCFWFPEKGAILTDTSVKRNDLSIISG
Put plainly: Measurement of Activity of GPR120 Agonist (Cell-Based Assay), Calcium 5 dye fluorescence. Conditions: CHO-K1 cells expressing Ga16 and hGPR120. The gist of the method: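 Fluorescence increase (Ex 485 nm, Em 525 nm) after agonist addition was calculated as relative percent of the 1% DMSO-only signal. Cells were CHO-K1 stably carrying Gα16 plus human GPR120, dye-loaded for 1 h after overnight (18 h) culture.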

As for `Cc1cc(OCC2CC2)nc(-c2cc(F)c(OCCCC(=O)O)c(Cl)c2)n1` [Example 396, 4-[2-chloro-4-[4-(cyclopropylmethoxy)-6-methyl-pyrimidin-2-yl]-6-fluoro-phenoxy]butanoic acid], the EC50 is under 200 nM.
Next, `O=C(O)CC1CCN(c2c(F)cc(-c3csc(OC4CCC4)n3)cc2F)C1` (stereo not drawn) [Example 582, {1-[4-(2-cyclobutoxy-thiazol-4-yl)-2,6-difluoro-phenyl]-pyrrolidin-3-yll}-acetic acid]: 200 to 2000 nM; `CC(C)Cc1cncc(-c2cc(F)c(N3CCC(CC(=O)O)CC3)c(F)c2)n1` [Example 364, 2-[1-[2,6-difluoro-4-(6-isobutylpyrazin-2-yl)phenyl]-4-piperidyl]acetic acid]: 200 to 2000 nM.
The result for `CC(C)Sc1ncccc1-c1ccc(N(C)CCCC(=O)O)c(F)c1` [Example 212, 4-{[2-fluoro-4-(2-isopropylsulfanyl-pyridin-3-yl)-phenyl]-methyl-amino}-butyric acid] reads under 200 nM.
Next, `O=C(O)CC1CCC(c2ccc(-c3cccnc3OC3CCCC3)cc2F)CC1` (stereo not drawn) [Example 187, {4-[4-(2-cyclopentyloxy-pyridin-3-yl)-2-fluoro-phenyl]-cyclohexyl}-acetic acid]: 200 to 2000 nM; `O=C(O)CCC1CC1c1c(F)cc(-c2cccnc2OCC2CCC2)cc1F` (stereo not drawn) [Example 189, 3-{2-[4-(2-cyclobutylmethoxy-pyridin-3-yl)-2,6-difluoro-phenyl]-cyclopropyl}-propanoic acid]: under 200 nM; `O=C(O)CC1CCN(c2c(F)cc(-c3cncc(OC4CCCC4)n3)cc2F)C1` (stereo not drawn) [Example 497, 2-{1-[2,6-difluoro-4-(6-cyclopentoxy-pyrazin-2-yl)phenyl]pyrrolidin-3-yl}acetic acid]: 200 to 2000 nM.
As to `CCCOc1nc(-c2cc(F)c(N3CCC(CC(=O)O)CC3)c(F)c2)ncc1F` [Example 598, {1-[2,6-difluoro-4-(5-fluoro-4-propoxy-pyrimidin-2-yl)-phenyl]-piperidin-4-yl}-acetic acid], the 50% effective concentration (EC50) is under 200 nM.
Consider `CC(C)(CCCC(=O)O)c1c(F)cc(-c2cccnc2SC2CCC2)cc1F` [Example 164, 5-[4-(2-cyclobutylsulfanyl-pyridin-3-yl)-2,6-difluoro-phenyl]-5-methyl-hexanoic acid], for which the concentration giving a half-maximal response (EC50) was in the range of 200 to 2000 nM.
The result for `COc1ccc(-c2cc(F)c(C3CC3CCC(=O)O)c(F)c2)c2c1OC(C)(C)C2` (stereo not drawn) [Example 442, 3-[2-[2,6-difluoro-4-(7-methoxy-2,2-dimethyl-3H-benzofuran-4-yl)phenyl]cyclopropyl]propanoic acid] reads 200 to 2000 nM; that for `Cc1cc(OC(C)C)nc(-c2cc(F)c(N3CCC(CC(=O)O)CC3)c(F)c2)n1` [Example 350, 2-[1-[2,6-difluoro-4-(4-isopropoxy-6-methyl-pyrimidin-2-yl)phenyl]-4-piperidyl]acetic acid], 200 to 2000 nM.
As to `O=C(O)CC1CCN(c2c(F)cc(-c3cncc(OC4CCC4)n3)cc2F)C1` (stereo not drawn) [Example 578, {1-[4-(6-cyclobutoxy-pyrazin-2-yl)-2,6-difluoro-phenyl]-pyrrolidin-3-yll}-acetic acid], the EC50 was under 200 nM.
On to `COc1ccc(-c2cc(F)c(C(C)CCCC(=O)O)c(F)c2)cc1OCC1CC1` (stereo not drawn) [Example 412, 5-(3′-cyclopropylmethoxy-3,5-difluoro-4′-methoxy-biphenyl-4-yl)-hexanoic acid], for which the EC50 is under 200 nM.
`CN(CCCC(=O)O)c1c(F)cc(-c2cncc(OCC3CC3)n2)cc1F` [Example 491, 4-[4-[6-(cyclopropylmethoxy)pyrazin-2-yl]-2,6-difluoro-N-methyl-anilino]butanoic acid]: the EC50 is under 200 nM.
For `O=C(O)CCCC1(c2c(F)cc(-c3cccnc3OC3CCCC3)cc2F)CC1` [Example 166, 4-{1-[4-(2-cyclopentyloxy-pyridin-3-yl)-2,6-difluoro-phenyl]-cyclopropyl}-butyric acid], the EC50 is under 200 nM.
